Data: patent publication US4172896A, “Methane-sulfonamide derivatives, the preparation thereof and composition comprising the same” (Dainippon Pharmaceutical Co., Ltd., priority 1978, dated 1979)

Tests used:
[1] = Anti-maximal electroshock seizure activity in mice; format: in vivo, mice (male, STD-ddY strain); settings: Mus musculus, oral, MES 60 Hz 25 mA 0.2 s, at peak effect time
Source text: Male mice of STD-ddY strain were used. The test compounds were orally administered to the test animals (each group: 10 mice) in the form of a homogeneous suspension in a 0.5% tragacanth solution.
Maximal electroshock seizures (MES) were induced by the method of Swinyard [cf. J. Amer. Pharm. Assoc., Vol. 38, page 201 (1949)]. The animals were subjected to 60 Hz current of 25 mA for 0.2 second delivered through corneal electrodes after administration of the test compounds. […] J. Pharmacol. Exp. Ther., Vol. 96, page 99 (1947)].

[2] = Effect on coordinated motor movements in mice (rotarod); settings: for TD50 / selectivity ratio: mouse, in vivo, po; for NTD50 (median neurotoxic dose): oral, mice, rotarod, at peak effect time
Method: Mice trained to continue coordinated motor movements for 100 seconds or more on a rotarod apparatus (2.5 cm in diameter at 11 RPM) were used [J. Amer. Pharm. […] Impairment of coordinated motor movements was defined as the inability of the animals to retain on the rotarod for a 100 second test period. After oral administration of the test compounds rotarod performance was tested at intervals of 1 hour for 6 hours. Median neurotoxic dose (NTD50), i.e. the does which causes fall from rotarod in 50% of animals, was calculated by the method of Litchfield and Wilcoxon.

in vivo = settings: mouse; for LD50 at 168 h: mortality observed for 7 days; for selectivity ratio: read-out: Safety index
Source text: Male mice of STD-ddY strain weighing 20-22 g were used. The test compounds were orally administered to the test animals (each group: 10 mice) in the form of a homogeneous suspension in 0.5% tragacanth solution.

SMILES | ED50 [1] | other results
NC(=O)N1c2ccccc2C=Cc2ccccc21 [Carbamazepine, 5H-dibenz[b,f]azepine-5-carboxamide, reference compound] | 13.2 mg/kg | TD50 [2]: 141 mg/kg; selectivity ratio [2]: 10.7; LD50 at 168 h (in vivo; oral, mice): 1700 mg/kg; selectivity ratio (in vivo; po): 129
O=C1NC(=O)C(c2ccccc2)(c2ccccc2)N1 [Diphenylhydantoin, 5,5-diphenyl-2,4-imidazolidinedione, reference compound] | 7.6 mg/kg | TD50 [2]: 72 mg/kg
NC(=O)NC(=O)Cc1ccccc1 [Phenacemide, phenylacetylurea, reference compound] | 61.2 mg/kg | –
CCC1(c2ccccc2)C(=O)NCNC1=O [Primidone, 5-ethyl-5-phenylhexahydropyrimidine-4,6-dione, reference compound] | 21.7 mg/kg | –
CCNS(=O)(=O)Cc1noc2ccccc12 [Test compound 3] | 38.9 mg/kg | –
CC(C)NS(=O)(=O)Cc1noc2ccccc12 [Test compound 4] | 56 mg/kg | –
CNS(=O)(=O)Cc1noc2ccc(Cl)cc12 [Test compound 7] | ~20 mg/kg | –
NS(=O)(=O)Cc1noc2ccc(F)cc12 [Test compound 10, 5-Fluoro-3-sulfamoylmethyl-1,2-benzisoxazole] | – | selectivity ratio [2]: 10.6; NTD50 (median neurotoxic dose) [2]: 154 mg/kg, p.o; selectivity ratio (in vivo; LD50/ED50 of anti-MES, mice, oral): 86.7; LD50 at 168 h (in vivo; oral, mice): 1260 mg/kg
NS(=O)(=O)Cc1noc2ccccc12 [compound 1] | 19.6 mg/kg | selectivity ratio [2]: 14.9; NTD50 (median neurotoxic dose) [2]: 292 mg/kg, p.o; LD50 at 168 h (in vivo; oral, mice): 1830 mg/kg; selectivity ratio (in vivo; po): 93.3
CNS(=O)(=O)Cc1noc2ccccc12 [compound 2] | 22.3 mg/kg | –
CN(C)S(=O)(=O)Cc1noc2ccccc12 [compound 5] | 37.2 mg/kg | –
NS(=O)(=O)Cc1noc2ccc(Cl)cc12 [compound 6] | 14.2 mg/kg | –
CCNS(=O)(=O)Cc1noc2ccc(Cl)cc12 [compound 8] | 21.3 mg/kg | –
CN(C)S(=O)(=O)Cc1noc2ccc(Cl)cc12 [compound 9] | 56.2 mg/kg | –
CNS(=O)(=O)Cc1noc2ccc(F)cc12 [compound 11] | 34.5 mg/kg | –
CCNS(=O)(=O)Cc1noc2ccc(F)cc12 [compound 12] | 31.6 mg/kg | –
CN(C)S(=O)(=O)Cc1noc2ccc(F)cc12 [compound 13] | 32 mg/kg | –
NS(=O)(=O)Cc1noc2ccc(Br)cc12 [compound 14] | 13.5 mg/kg | –
CNS(=O)(=O)Cc1noc2ccc(Br)cc12 [compound 15] | 15 mg/kg | –
CCNS(=O)(=O)Cc1noc2ccc(Br)cc12 [compound 16] | 18.3 mg/kg | –
CC(C)NS(=O)(=O)Cc1noc2ccc(Br)cc12 [compound 17] | 22.3 mg/kg | –
NS(=O)(=O)Cc1noc2cc(F)ccc12 [compound 18] | 18.9 mg/kg | –
NS(=O)(=O)Cc1nc2ccccc2o1 [compound 19] | 12 mg/kg | TD50 [2]: 168 mg/kg; selectivity ratio [2]: 14; LD50 at 168 h (in vivo; oral, mice): ~1800 mg/kg
CNS(=O)(=O)Cc1nc2ccccc2o1 [compound 20] | 17.2 mg/kg | –
CN(C)S(=O)(=O)Cc1nc2ccccc2o1 [compound 21] | 34 mg/kg | –
CCCNS(=O)(=O)Cc1nc2ccccc2o1 [compound 22] | 31.2 mg/kg | –
NS(=O)(=O)Cc1nc2cc(Cl)ccc2o1 [compound 23] | 30.3 mg/kg | –
